Test results from the supplement of paper PMC11451515.

System: SEM cells
Assay: cell viability relative to DMSO control; higher = less cytotoxic
Details: 48 h
Procedure, shortened: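 Cells were incubated for 48 h at 37°C before CellTiter-Glo One luminescence was read. The cells were NOMO1 or SEM (500 cells/well) or P12-Ichikawa (1000 cells/well) leukemia cells, adapted for at least four passages in each medium and seeded in 1536-well plates (5 μl). Dosing used library compounds in DMSO applied by pin over 11 threefold points, 47 μM to 0.79 nM. Viability is the per-plate percentage of DMSO wells, with cell-free wells as background.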

[1] = HPLM + 10% dialyzed FBS, 0.000781 µM
[2] = HPLM + 10% dialyzed FBS, 0.00234 µM
[3] = HPLM + 10% dialyzed FBS, 0.00702 µM
[4] = HPLM + 10% dialyzed FBS, 0.0211 µM
[5] = HPLM + 10% dialyzed FBS, 0.0632 µM
[6] = HPLM + 10% dialyzed FBS, 0.19 µM
[7] = HPLM + 10% dialyzed FBS, 0.569 µM
[8] = HPLM + 10% dialyzed FBS, 1.71 µM
[9] = HPLM + 10% dialyzed FBS, 5.12 µM
[10] = HPLM + 10% dialyzed FBS, 15.4 µM
[11] = HPLM + 10% dialyzed FBS, 46.1 µM
[12] = RPMI 5 mM glucose + 10% FBS, 0.000781 µM
[13] = RPMI 5 mM glucose + 10% FBS, 0.00234 µM
[14] = RPMI 5 mM glucose + 10% FBS, 0.00702 µM
[15] = RPMI 5 mM glucose + 10% FBS, 0.0211 µM
[16] = RPMI 5 mM glucose + 10% FBS, 0.0632 µM
[17] = RPMI 5 mM glucose + 10% FBS, 0.19 µM
[18] = RPMI 5 mM glucose + 10% FBS, 0.569 µM
[19] = RPMI 5 mM glucose + 10% FBS, 1.71 µM
[20] = RPMI 5 mM glucose + 10% FBS, 5.12 µM
[21] = RPMI 5 mM glucose + 10% FBS, 15.4 µM
[22] = RPMI 5 mM glucose + 10% FBS, 46.1 µM
[23] = RPMI 5 mM glucose + 10% dialyzed FBS, 0.000781 µM
[24] = RPMI 5 mM glucose + 10% dialyzed FBS, 0.00234 µM
[25] = RPMI 5 mM glucose + 10% dialyzed FBS, 0.00702 µM
[26] = RPMI 5 mM glucose + 10% dialyzed FBS, 0.0211 µM
[27] = RPMI 5 mM glucose + 10% dialyzed FBS, 0.0632 µM
[28] = RPMI 5 mM glucose + 10% dialyzed FBS, 0.19 µM
[29] = RPMI 5 mM glucose + 10% dialyzed FBS, 0.569 µM
[30] = RPMI 5 mM glucose + 10% dialyzed FBS, 1.71 µM
[31] = RPMI 5 mM glucose + 10% dialyzed FBS, 5.12 µM
[32] = RPMI 5 mM glucose + 10% dialyzed FBS, 15.4 µM
[33] = RPMI 5 mM glucose + 10% dialyzed FBS, 46.1 µM

| SMILES | cell viability [1] [%] | cell viability [2] [%] | cell viability [3] [%] | cell viability [4] [%] | cell viability [5] [%] | cell viability [6] [%] | cell viability [7] [%] | cell viability [8] [%] | cell viability [9] [%] | cell viability [10] [%] | cell viability [11] [%] | cell viability [12] [%] | cell viability [13] [%] | cell viability [14] [%] | cell viability [15] [%] | cell viability [16] [%] | cell viability [17] [%] | cell viability [18] [%] | cell viability [19] [%] | cell viability [20] [%] | cell viability [21] [%] | cell viability [22] [%] | cell viability [23] [%] | cell viability [24] [%] | cell viability [25] [%] | cell viability [26] [%] | cell viability [27] [%] | cell viability [28] [%] | cell viability [29] [%] | cell viability [30] [%] | cell viability [31] [%] | cell viability [32] [%] | cell viability [33] [%] |
| --- | --- | --- | --- | --- | --- | --- | --- | --- | --- | --- | --- | --- | --- | --- | --- | --- | --- | --- | --- | --- | --- | --- | --- | --- | --- | --- | --- | --- | --- | --- | --- | --- | --- |
| FC(F)(F)C1=CC=C2C(SCCCCCO\C3=C\O\C(CN4CCOCC4)=C/C3=O)=CC=NC2=C1 | 92.4 | 106 | 107 | 106 | 108 | 115 | 111 | 119 | 112 | 106 | 96.2 | 66.6 | 74.4 | 69 | 67.2 | 63.7 | 72.9 | 77.8 | 65.4 | 66.1 | 69.4 | 61.9 | 112 | 113 | 104 | 110 | 102 | 112 | 115 | 110 | 99 | 102 | 85.7 |
| CCN1\C=C(C(O)=O)/C(=O)C2=C1C=C(N3CCN(C)CC3)C(=C2)F | 107 | 112 | 98.6 | 117 | 104 | 115 | 129 | 105 | 109 | 110 | 96.7 | 108 | 112 | 128 | 116 | 107 | 120 | 105 | 117 | 108 | 107 | 103 | 107 | 114 | 108 | 107 | 95.6 | 108 | 106 | 83.6 | 106 | 109 | 91.8 |
| COc1cc(Nc2ncc(F)c(Nc3ccc4c(n3)N(COP(=O)(O)O)C(=O)C(C)(C)O4)n2)cc(OC)c1OC | 77 | 88.7 | 95.8 | 91.2 | 65.9 | 55.2 | 35 | 33.5 | 49.9 | 37.1 | 35.5 | 98.2 | 108 | 102 | 107 | 77.9 | 41.1 | 26.5 | 34.7 | 42.8 | 35.1 | 34.4 | 80.8 | 96.6 | 83.5 | 82.1 | 60.2 | 35.7 | 25.1 | 23.7 | 35.1 | 22 | 24.6 |
| COC(=O)Nc1ccc(-c2nc(N3CCOCC3)c3cnn(C4CCN(Cc5cccnc5)CC4)c3n2)cc1 | 86.4 | 98 | 99 | 92.5 | 93.5 | 57.9 | 46.6 | 50.9 | 21.4 | 10.6 | 7.36 | 119 | 98 | 85.5 | 99.9 | 75.4 | 54.2 | 33.3 | 35.9 | 4.31 | 2.26 | 3.9 | 125 | 128 | 112 | 105 | 89.9 | 67.8 | 43.7 | 40.3 | 6.29 | 3.11 | 4.53 |
| NCCCC(O)(P(=O)(O)O)P(=O)(O)O.O.O.O.[Na+] | 141 | 106 | 118 | 120 | 122 | 118 | 125 | 110 | 71 | 56.6 | 15.4 | 124 | 125 | 109 | 130 | 112 | 122 | 99.3 | 101 | 22.5 | 16.6 | 6.56 | 125 | 111 | 133 | 118 | 122 | 113 | 110 | 116 | 37.5 | 27.9 | 7.61 |
| CO[C@@H]1[C@@H](OC(N)=O)[C@@H](O)[C@H](OC2=CC=C3\C(=C(NC(=O)C4=CC=C([O-])C(=C4)CC=C(C)C)/C(=O)OC3=C2C)O)OC1(C)C | 106 | 110 | 123 | 97.7 | 118 | 116 | 102 | 101 | 121 | 98.7 | 117 | – | – | – | – | – | – | – | – | – | – | – | 105 | 106 | 109 | 114 | 111 | 115 | 109 | 101 | 107 | 81.5 | 110 |
| COc1nccc(-c2c(-c3ccc(F)cc3)ncn2C2CCC(O)CC2)n1 (stereo not drawn) | 124 | 123 | 132 | 128 | 122 | 105 | 125 | 113 | 106 | 116 | 36.1 | 102 | 116 | 97.3 | 103 | 96.6 | 56.7 | 53.4 | 63.9 | 63.8 | 47.9 | 12.2 | 103 | 126 | 116 | 114 | 123 | 127 | 111 | 112 | 94.9 | 87.9 | 26.8 |
| CN[C@H]1[C@H](O[C@@H]2[C@H](O[C@@H]3[C@@H](O)[C@@H](O)[C@@H](NC(=N)N)[C@@H](O)[C@H]3NC(=N)N)O[C@H](C)[C@@]2(O)C=O)O[C@@H](CO)[C@@H](O)[C@H]1O | 93.2 | 89.9 | 79.7 | 80.2 | 79.9 | 82.2 | 83.7 | 57 | 83.3 | 82.1 | 78.6 | 95.1 | 116 | 119 | 114 | 114 | 110 | 104 | 44.8 | 103 | 85.6 | 99.3 | 109 | 103 | 118 | 114 | 117 | 114 | 109 | 80.4 | 103 | 111 | 101 |
